# According to PubChem BioAssay (NCI):
# “And” between values parts separate entries of the source, which are not always exact repeats. Equal entries are not always repeated.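 Method: 48-hour compound exposure of cells in 96-well plates, five concentrations, linear interpolation of endpoints. The concentration for 50% growth inhibition is given as GI50. TGI marks complete inhibition of growth.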
# Legend:
# Assay in all cases: NCI-60 cell line screen, 48 h
# 786-0 renal = tested on: 786-0 renal
# EKVX NSCLC = tested on: EKVX NSCLC
# HCT-116 colon = tested on: HCT-116 colon
# SR leukemia = tested on: SR leukemia
# SK-MEL-2 melanoma = tested on: SK-MEL-2 melanoma
# UO-31 renal = tested on: UO-31 renal
# A549 NSCLC = tested on: A549 NSCLC
# SF-268 CNS = tested on: SF-268 CNS
# MALME-3M melanoma = tested on: MALME-3M melanoma
# MDA-MB-231 breast = tested on: MDA-MB-231 breast
SMILES,GI50 (786-0 renal),TGI (786-0 renal),GI50 (EKVX NSCLC) [µM],TGI (EKVX NSCLC) [µM],GI50 (HCT-116 colon),TGI (HCT-116 colon),GI50 (SR leukemia) [µM],TGI (SR leukemia) [µM],GI50 (SK-MEL-2 melanoma) [µM],TGI (SK-MEL-2 melanoma) [µM],TGI (UO-31 renal) [µM],GI50 (A549 NSCLC),TGI (A549 NSCLC) [µM],GI50 (SF-268 CNS) [µM],TGI (SF-268 CNS) [µM],GI50 (MALME-3M melanoma),TGI (MALME-3M melanoma),GI50 (MDA-MB-231 breast) [µM],TGI (MDA-MB-231 breast) [µM],GI50 (UO-31 renal) [µM]
CN1CCN(CCCN2c3ccccc3Sc3ccc(Cl)cc32)CC1,6.15 µM and 38 µM,12.8 µM and 61.4 µM,5.46,12.4,5.15 µM and 39.9 µM,12 µM and 54.2 µM,2.99,11.3,40.9,59.5,9.49,6.5 µM and 56.8 µM,13.7,5.27,12,6.01 µM and 39.7 µM,14.3 µM and 55.9 µM,,,
C=CC(=O)Nc1cccc(Oc2nc(Nc3ccc(N4CCN(C)CC4)cc3OC)ncc2Cl)c1,1.47 µM,2.94 µM,0.363,3.38,1.64 µM,3.06 µM,,,2.19,4.3,2.32,1.46 µM,3.33,2.37,9.24,,,1.94,4.12,1.03
O=C1C(c2ccccc2)=C(c2ccccc2)C(c2ccc(Sc3ccc(C4=C(c5ccccc5)C(=O)C(c5ccccc5)=C4c4ccccc4)cc3)cc2)=C1c1ccccc1,,> 100 µM,,> 100,,> 100 µM,,> 100,,> 100,> 100,,> 100,,> 100,,> 100 µM,,,
COc1ccc2c(c1)[n+]([O-])c(/C(C)=N/NC(=O)c1ccccc1O)c(C)[n+]2[O-],,> 100 µM,,> 100,,> 100 µM,,,,> 100,> 100,,> 100,,> 100,,> 100 µM,,,
COc1cc(O)c2c(c1)C(=O)C1=C(C2=O)C(O)C[C@@](C)(O)C1 (stereo partly specified),,9.25 µM,,13.1,,2.22 µM,,6.14,,5.05,6.6,,11.5,,4.47,,2.11 µM,,,
Cc1ccc(S(=O)(=O)OCCOCCOCCOCCOCCOS(=O)(=O)c2ccc(C)cc2)cc1,,> 100 µM,,> 100,,> 100 µM,,90.9,,> 100,> 100,,> 100,,> 100,,> 100 µM,,,
Cc1ccc(OCCOCCOCCOCCOCCOc2ccc(C)n(O)c2=S)c(=S)n1O,0.0952 µM,> 100 µM,0.0392,> 100,0.0302 µM,27.5 µM,,,4.81,40.5,2.02,0.0741 µM,> 100,0.0693,> 100,0.109 µM,> 34.6 µM,0.062,> 100,0.0377
COC(=O)CNc1nc(N(C)O)nc(N(C)O)n1,3.56 µM,66.8 µM,3.31,> 100,1.98 µM,> 100 µM,,,3.45,25.7,50.5,3.44 µM,> 100,1.83,> 100,19.3 µM,77.4 µM,4.16,> 100,3.02
CC(=O)OCC1OC(n2ncc(=O)[nH]c2=O)C(OC(C)=O)C1OC(C)=O (stereo unspecified),,> 100 µM,,,,> 100 µM,,> 100,,,,,> 100,,> 100,,> 100 µM,,,
COc1cccc(C2SCc3nc4ccccc4n32)c1 (stereo unspecified),,> 100 µM,,> 100,,> 100 µM,,,,> 100,95.7,,> 100,,> 100,,> 100 µM,,,
O=C(c1ccccc1)c1nc2ccc(C(F)(F)F)cc2nc1N1CCN(c2ccccc2)CC1,30.7 µM,76.1 µM,79.3,> 100,24.7 µM,53.7 µM,,,48,> 100,> 100,> 100 µM,> 100,48,> 100,48.2 µM,> 100 µM,23.4,63.9,31.7
Cc1ccc(C2=Nc3ccccc3S(=O)C(c3ccc4c(c3)OCO4)C2)cc1 (stereo unspecified),,44 µM,,> 100,,37.3 µM,,> 100,,41.6,> 100,,> 100,,50.5,,> 100 µM,,,
O=C1C(=O)N(c2ccc(Cl)cc2)C(=O)C(=Nc2cccc3c(=O)[nH][nH]c(=O)c23)C1c1nc2ccccc2o1 (stereo unspecified),,> 100 µM,,> 100,,> 100 µM,,> 100,,> 100,> 100,,> 100,,> 100,,> 100 µM,,,
CCCCCCCCCCOC(=O)NCCC,,> 100 µM,,67.7,,,,,,41,50.6,,> 100,,> 100,,54.8 µM,,,
O=C(O)c1c2c(cc3c(=O)cc(-c4ccccc4)oc13)CCCC2,,> 100 µM,,> 100,,> 100 µM,,,,> 100,> 100,,> 100,,> 100,,> 100 µM,,,
CC[PH+](CC)CC.CC[PH+](CC)CC.[Au],7.35 µM,19.7 µM,5.83,11.5,16 µM,32.9 µM,,,2.73,15.8,35.8,22.8 µM,53.1,13.4,30.1,11.4 µM,24.7 µM,,,21.4
C=C1C(=O)C2=CC1CCC(=O)C1(C)CCC(OC(C)=O)C(C)(C)C1CC2O (stereo unspecified),,> 37.7 µM,,18.9,,> 21.2 µM,,,,25.6,5.38,,22.4,,38.7,,18.1 µM,,18,
O=C(CSSCC(=O)Nc1ccc(Br)cc1)Nc1ccc(Br)cc1,,31.4 µM,,48.9,,28.1 µM,,37.9,,,31.8,,35.8,,26.6,,43 µM,,,
O=[N+]([O-])C=C1c2ccccc2-c2ccccc21,,30.3 µM,,37.1,,17.5 µM,,28.5,,39.9,28.5,,42.8,,36.4,,,,,
CC(=O)OCCCC#CC#Cc1cccc(=O)o1,19 µM,35.1 µM,16.9,36.4,14.6 µM,29.1 µM,,,40,> 100,> 100,20.4 µM,42.9,19.4,41.1,,,13.7,29,3.52
CN(/N=C\c1ccnc2ccccc12)c1ccccc1,,37.7 µM,,91.2,,36 µM,,,,38.5,54.4,,53.1,,> 100,,52.8 µM,,,
O=C(CC1(O)C(=O)Nc2c(Cl)cc(Cl)cc21)c1ccc(F)cc1 (stereo unspecified),,38.9 µM,,> 100,,> 100 µM,,57,,> 100,> 100,,> 100,,> 100,,> 100 µM,,,
CC(C)=NNC(=S)NC12CC3CC(CC(C3)C1)C2,,> 100 µM,,> 100,,> 100 µM,,> 100,,> 100,> 100,,> 100,,> 100,,,,,
Cc1[nH]nc2ncc(C(=O)N3CCC[C@H]3c3ccc(Cl)cc3)cc12,47.7 µM,> 100 µM,79.8,> 100,33.1 µM,> 100 µM,,,> 100,> 100,> 100,> 100 µM,> 100,> 100,> 100,> 100 µM,> 100 µM,> 100,> 100,61.2
c1ccc2c(CNCCCCCCCCNCc3cccc4ccccc34)cccc2c1,,3.31 µM,,18.8,,3.05 µM,,,,3.03,3.45,,5.41,,21.4,,3.41 µM,,,
Cc1ccc(Sc2ccccc2N)cc1,,> 100 µM,,> 100,,> 100 µM,,,,> 100,31.5,,> 100,,> 100,,> 100 µM,,,
N#CCc1nnc(N)o1,,> 100 µM,,> 100,,> 100 µM,,> 100,,> 100,> 100,,> 100,,> 100,,> 100 µM,,,
O=C(O)c1cn(C2CC2)c2cc(N3CCN(Cc4c(O)ccc5ccccc45)CC3)c(F)cc2c1=O,2.58 µM,7.05 µM,> 100,> 100,2.37 µM,6.17 µM,,,15.1,> 100,> 100,4.03 µM,> 100,56.8,> 100,4.07 µM,> 100 µM,5.15,> 100,3.71
COC12OCCN(C)C1=CC(=O)C1(C)N=NCC12 (stereo unspecified),,> 100 µM,,> 100,,> 100 µM,,,,,> 100,,> 100,,,,> 100 µM,,,
CCOC(=O)C1SC(=Nc2ccc(Cl)cc2Cl)N=C1C (stereo unspecified),,> 100 µM,,> 100,,> 100 µM,,,,> 100,> 100,,> 100,,> 100,,> 100 µM,,,
